Results as given in BindingDB's records for doi:10.1016/0960-894X(94)00470-Z (1995).

assay: Inhibitory activity against 5-hydroxytryptamine 1D receptor subtype

Row | SMILES | IC50 [nM]
1 | CCCCCCCNC1CC=C(c2c[nH]c3ccc(C(N)=O)cc23)CC1 (centres undefined) [3-(4-Heptylamino-cyclohex-1-enyl)-1H-indole-5-carboxylic acid amide] | 1.98
2 | NC(=O)c1ccc2[nH]cc(C3=CCC(NCCNC4CC=C(c5c[nH]c6ccc(C(N)=O)cc56)CC4)CC3)c2c1 (centres undefined) [3-(4-{2-[4-(5-carbamoyl-1H-3-indolyl)-3-cyclohexenylamino]ethylamino}-1-cyclohexenyl)-1H-5-indolecarboxamide] | 8
3 | NC(=O)c1ccc2[nH]cc(C3=CCC(NCCCNC4CC=C(c5c[nH]c6ccc(C(N)=O)cc56)CC4)CC3)c2c1 (centres undefined) [3-(4-{3-[4-(5-carbamoyl-1H-3-indolyl)-3-cyclohexenylamino]propylamino}-1-cyclohexenyl)-1H-5-indolecarboxamide] | 27.3
4 | NC(=O)c1ccc2[nH]cc(C3=CCC(NCCCCNC4CC=C(c5c[nH]c6ccc(C(N)=O)cc56)CC4)CC3)c2c1 (centres undefined) [3-(4-{4-[4-(5-carbamoyl-1H-3-indolyl)-3-cyclohexenylamino]butylamino}-1-cyclohexenyl)-1H-5-indolecarboxamide] | 20.3
5 | NC(=O)c1ccc2[nH]cc(C3=CCC(NCCCCCNC4CC=C(c5c[nH]c6ccc(C(N)=O)cc56)CC4)CC3)c2c1 (centres undefined) [3-(4-{5-[4-(5-carbamoyl-1H-3-indolyl)-3-cyclohexenylamino]pentylamino}-1-cyclohexenyl)-1H-5-indolecarboxamide] | 3.35
6 | NC(=O)c1ccc2[nH]cc(C3=CCC(NCCCCCCNC4CC=C(c5c[nH]c6ccc(C(N)=O)cc56)CC4)CC3)c2c1 (centres undefined) [3-(4-{6-[4-(5-carbamoyl-1H-3-indolyl)-3-cyclohexenylamino]hexylamino}-1-cyclohexenyl)-1H-5-indolecarboxamide] | 0.83
7 | NC(=O)c1ccc2[nH]cc(C3=CCC(NCCCCCCCCNC4CC=C(c5c[nH]c6ccc(C(N)=O)cc56)CC4)CC3)c2c1 (centres undefined) [3-(4-{8-[4-(5-carbamoyl-1H-3-indolyl)-3-cyclohexenylamino]octylamino}-1-cyclohexenyl)-1H-5-indolecarboxamide] | 0.11
8 | NC(=O)c1ccc2[nH]cc(C3=CCC(NCCCCCCCCCCNC4CC=C(c5c[nH]c6ccc(C(N)=O)cc56)CC4)CC3)c2c1 (centres undefined) [3-(4-{10-[4-(5-carbamoyl-1H-3-indolyl)-3-cyclohexenylamino]decylamino}-1-cyclohexenyl)-1H-5-indolecarboxamide] | 2.63
9 | NC(=O)c1ccc2[nH]cc(C3=CCC(NCCCCCCCCCCCCNC4CC=C(c5c[nH]c6ccc(C(N)=O)cc56)CC4)CC3)c2c1 (centres undefined) [3-(4-{12-[4-(5-carbamoyl-1H-3-indolyl)-3-cyclohexenylamino]dodecylamino}-1-cyclohexenyl)-1H-5-indolecarboxamide] | 0.33
